Source: PubChem BioAssay (NCI)
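The concentration for 50% growth inhibition is given as GI50. Definition used: TGI = concentration required for complete inhibition of growth.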

Columns and labels:
Assay in all cases: NCI tumour cell line growth inhibition, 384-well format
OVCAR-4 ovarian = system: OVCAR-4 ovarian
SK-MEL-5 melanoma = system: SK-MEL-5 melanoma
ACHN renal = system: ACHN renal
OVCAR-5 ovarian = system: OVCAR-5 ovarian
IGROV1 ovarian = system: IGROV1 ovarian
CAKI-1 renal = system: CAKI-1 renal
RPMI-8226 leukemia = system: RPMI-8226 leukemia
CCRF-CEM leukemia = system: CCRF-CEM leukemia
786-0 renal = system: 786-0 renal
A549 NSCLC = system: A549 NSCLC
COLO 205 colon = system: COLO 205 colon
OVCAR-8 ovarian = system: OVCAR-8 ovarian
SNB-75 CNS = system: SNB-75 CNS
HL-60(TB) leukemia = system: HL-60(TB) leukemia
SF-268 CNS = system: SF-268 CNS
HOP-62 NSCLC = system: HOP-62 NSCLC
UO-31 renal = system: UO-31 renal
OVCAR-3 ovarian = system: OVCAR-3 ovarian
A498 renal = system: A498 renal
HCC-2998 colon = system: HCC-2998 colon
SR leukemia = system: SR leukemia
SF-539 CNS = system: SF-539 CNS
HCT-15 colon = system: HCT-15 colon
DU-145 prostate = system: DU-145 prostate
MALME-3M melanoma = system: MALME-3M melanoma
HS 578T breast = system: HS 578T breast
RXF 393 renal = system: RXF 393 renal
TK-10 renal = system: TK-10 renal
NCI-H23 lung = system: NCI-H23 lung
M14 melanoma = system: M14 melanoma
SNB-19 CNS = system: SNB-19 CNS
T-47D breast = system: T-47D breast
MCF7 breast = system: MCF7 breast
SW-620 colon = system: SW-620 colon
PC-3 prostate = system: PC-3 prostate
HOP-92 NSCLC = system: HOP-92 NSCLC
SN12C renal = system: SN12C renal
K-562 leukemia = system: K-562 leukemia
BT-549 breast = system: BT-549 breast
HT29 colon = system: HT29 colon
NCI-H460 NSCLC = system: NCI-H460 NSCLC
NCI-H226 lung = system: NCI-H226 lung
EKVX NSCLC = system: EKVX NSCLC
KM12 colon = system: KM12 colon
U251 glioblastoma = system: U251 glioblastoma
NCI-H522 lung = system: NCI-H522 lung
MDA-MB-435 melanoma = system: MDA-MB-435 melanoma

Compound: CC[C@H](NC(=O)[C@H](CS(=O)(=O)CC1CC1)N[C@@H](c1ccc(F)cc1)C(F)(F)F)C(=O)C(=O)NC1CC1
- GI50 (OVCAR-4 ovarian): > 100 µM
- TGI (OVCAR-4 ovarian): > 100 µM
- GI50 (SK-MEL-5 melanoma): > 100 µM
- TGI (SK-MEL-5 melanoma): > 100 µM
- GI50 (ACHN renal): > 100 µM
- TGI (ACHN renal): > 100 µM
- GI50 (OVCAR-5 ovarian): > 100 µM
- TGI (OVCAR-5 ovarian): > 100 µM
- GI50 (IGROV1 ovarian): > 100 µM
- TGI (IGROV1 ovarian): > 100 µM
- GI50 (CAKI-1 renal): > 100 µM
- TGI (CAKI-1 renal): > 100 µM
- GI50 (RPMI-8226 leukemia): 77.2 µM
- TGI (RPMI-8226 leukemia): > 100 µM
- GI50 (CCRF-CEM leukemia): 60.9 µM
- TGI (CCRF-CEM leukemia): > 100 µM
- GI50 ([…]-0 renal): > 100 µM
- TGI (786-0 renal): > 100 µM
- GI50 (A549 NSCLC): > 100 µM
- TGI (A549 NSCLC): > 100 µM
- GI50 (COLO 205 colon): > 100 µM
- TGI (COLO 205 colon): > 100 µM
- GI50 (OVCAR-8 ovarian): > 100 µM
- TGI (OVCAR-8 ovarian): > 100 µM
- GI50 (SNB-75 CNS): > 89.5 µM
- TGI (SNB-75 CNS): > 100 µM
- GI50 (HL-60(TB) leukemia): 84.2 µM
- TGI (HL-60(TB) leukemia): > 100 µM
- GI50 (SF-268 CNS): > 51.4 µM
- TGI (SF-268 CNS): > 93.9 µM
- GI50 (HOP-62 NSCLC): 98.8 µM
- TGI (HOP-62 NSCLC): > 100 µM
- GI50 (UO-31 renal): > 100 µM
- TGI (UO-31 renal): > 100 µM
- GI50 (OVCAR-3 ovarian): > 100 µM
- TGI (OVCAR-3 ovarian): > 100 µM
- GI50 (A498 renal): > 100 µM
- TGI (A498 renal): > 100 µM
- GI50 (HCC-2998 colon): > 100 µM
- TGI (HCC-2998 colon): > 100 µM
- GI50 (SR leukemia): 19.3 µM
- TGI (SR leukemia): 74.5 µM
- GI50 (SF-539 CNS): > 100 µM
- TGI (SF-539 CNS): > 100 µM
- GI50 (HCT-15 colon): > 100 µM
- TGI (HCT-15 colon): > 100 µM
- GI50 (DU-145 prostate): > 100 µM
- TGI (DU-145 prostate): > 100 µM
- GI50 (MALME-3M melanoma): > 100 µM
- TGI (MALME-3M melanoma): > 100 µM
- GI50 (HS 578T breast): > 100 µM
- TGI (HS 578T breast): > 100 µM
- GI50 (RXF 393 renal): > 88.2 µM
- TGI (RXF 393 renal): > 100 µM
- GI50 (TK-10 renal): > 100 µM
- TGI (TK-10 renal): > 100 µM
- GI50 (NCI-H23 lung): > 100 µM
- TGI (NCI-H23 lung): > 100 µM
- GI50 (M14 melanoma): > 100 µM
- TGI (M14 melanoma): > 100 µM
- GI50 (SNB-19 CNS): > 100 µM
- TGI (SNB-19 CNS): > 100 µM
- GI50 (T-47D breast): > 59.9 µM
- TGI (T-47D breast): > 100 µM
- GI50 (MCF7 breast): 97.5 µM
- TGI (MCF7 breast): > 100 µM
- GI50 (SW-620 colon): > 100 µM
- TGI (SW-620 colon): > 100 µM
- GI50 (PC-3 prostate): > 100 µM
- TGI (PC-3 prostate): > 100 µM
- GI50 (HOP-92 NSCLC): > 100 µM
- TGI (HOP-92 NSCLC): > 100 µM
- GI50 (SN12C renal): > 100 µM
- TGI (SN12C renal): > 100 µM
- GI50 (K-562 leukemia): > 93.1 µM
- TGI (K-562 leukemia): > 100 µM
- GI50 (BT-549 breast): > 100 µM
- TGI (BT-549 breast): > 100 µM
- GI50 (HT29 colon): > 100 µM
- TGI (HT29 colon): > 100 µM
- GI50 (NCI-H460 NSCLC): > 100 µM
- TGI (NCI-H460 NSCLC): > 100 µM
- GI50 (NCI-H226 lung): > 71.7 µM
- TGI (NCI-H226 lung): > 100 µM
- GI50 (EKVX NSCLC): 98.7 µM
- TGI (EKVX NSCLC): > 100 µM
- GI50 (KM12 colon): > 100 µM
- TGI (KM12 colon): > 100 µM
- GI50 (U251 glioblastoma): > 100 µM
- TGI (U251 glioblastoma): > 100 µM
- GI50 (NCI-H522 lung): > 100 µM
- TGI (NCI-H522 lung): > 100 µM
- GI50 (MDA-MB-435 melanoma): > 100 µM
- TGI (MDA-MB-435 melanoma): > 100 µM
